In US20230210770A1, “TOPICAL OPHTHALMOLOGICAL COMPOSITIONS AND METHODS FOR TREATING ABNORMAL ANGIOGENESIS” (ADS THERAPEUTICS LLC, priority 2020, published 2023):
Converted amounts (≈) assume the structure as drawn.

Experiments:
[1] = cited from earlier work
[2] = Solubility of nintedanib in various solubilizers; assay type: physicochemical
Experimental: Tare 1.5 mL Eppendorf tube 2. […] Add solubilizer and record weight 4. Add water pH 5 (except F3 & F4) and record weight 5. Beadbeater mix for 120 seconds 6. Place on rotating mixer for overnight at ambient temperature 7. Filter through 0.2 μm SPIN-X centrifuge filter 8. Measure pH of filtrate 9. Assay filtrate using CBT-001 standard solution [table]

[3] = Solubility in water (reported); assay type: physicochemical
[4] = Solubility of nintedanib in a representative water-based emulsion system; assay type: physicochemical; details: for solubility: water-based emulsion, aqueous with cosolvent or surfactant or cyclodextrin, Nintedanib solubility
[5] = test system: rabbit glaucoma filtration surgery model; assay: Rabbit glaucoma filtration surgery model; assay type: in vivo, New Zealand White rabbits; details: vs vehicle
[6] = Regorafenib concentration and degradation in F6H8 suspension by HPLC; assay type: physicochemical
Experimental: The Suspension was homogenized by stirring at room temperature for 15 minutes. […] The observed fluctuation was most likely due to inhomogeneity of the sample after manual shaking of the suspension.
[…] were injected into an Agilent 1100 HPLC system (Agilent, Waldbronn, Germany), and samples were run on a heated (40° C.) Symmetry C18 column (150×4.6 mm-3.5 um particle size, Waters, Eschborn, Germany) applying a flow rate of 1 ml/min. The mobile phase consisted of a mixture of potassium phosphate buffer pH 2.4 (A) and acetonitrile/ethanol (6/4) (B). The following gradient was applied: minute 0: A, 60%/B, 40%: minute 12: A, 20%/B, 80%: minute 16: A, 20%/B, 80%: minute 16.5: A, 60%/B, 40%: minute 20: A, 60%/B, 40%.

[7] = water-based emulsion of castor oil, polysorbate 80 and polyoxyl-35 castor oil

In the case of CNC(=O)c1ccccc1Sc1ccc2c(/C=C/c3ccccn3)n[nH]c2c1 [Axitinib, axitinib], the solubility in water ([1]; water at neutral pH) is given as 200 µg/mL (≈ 0.517 mM).
For COC(=O)c1ccc2c(c1)NC(=O)/C2=C(\Nc1ccc(N(C)C(=O)CN2CCN(C)CC2)cc1)c1ccccc1 [Nintedanib, nintedanib], the Nintedanib solubility ([2]; solubilizer BZA, filtrate pH 5.6) was 0.01 mg/g, the Nintedanib solubility ([2]; solubilizer BZK, filtrate pH 5.6) was 0.20 mg/g and the Nintedanib solubility ([2]; solubilizer Castor oil) was 0.37 mg/g. It also gave a Nintedanib solubility ([2]; solubilizer EtOH, filtrate pH 6.1) of 0.01 mg/g, a Nintedanib solubility ([2]; solubilizer Mineral oil) of 0.00 mg/g and a Nintedanib solubility ([2]; solubilizer PEG 400, filtrate pH 5.6) of 0.17 mg/g. The Nintedanib solubility ([2]; solubilizer PEG 8000, filtrate pH 6.0) was 0.01 mg/g, the Nintedanib solubility ([2]; solubilizer PG, filtrate pH 6.0) was 0.01 mg/g and the Nintedanib solubility ([2]; solubilizer PLXMR 188, filtrate pH 6.5) was 0.01 mg/g. The Nintedanib solubility ([2]; solubilizer PLXMR 407, filtrate pH 6.3) was 0.01 mg/g, the Nintedanib solubility ([2]; solubilizer polysorbate 20, filtrate pH 6.6) was 0.06 mg/g and the Nintedanib solubility ([2]; solubilizer polysorbate 80, filtrate pH 6.7) was 0.25 mg/g. The “reported solubility in water” value ([1]; water) was “less than 0.01 mg/mL”, the “reported solubility in water, as percent” value [3] was under 0.001% and the “nintedanib dissolved by the emulsion system” value [4, 7] was 3 to 5 mg/mL. The “ophthalmic emulsion concentration of nintedanib” value [4, 7] was 0.3%-0.5, the solubility ([4]; emulsion F70 lot 1: castor oil 1, polysorbate 80 1, polyoxyl-35 castor oil 2, water 95) was 5000 µg/mL (≈ 9.27 mM) and the solubility ([4]; emulsion F70 lot 2: castor oil 1, polysorbate 80 1, polyoxyl-35 castor oil 2, water 95) was 3400 µg/mL (≈ 6.3 mM). For the same compound, the fibroblast density ([5]; group 3: 0.3% emulsion BID minus Day 7-Day 30, rabbit) was “trend of reduction not statistically significant” and the fibroblast density ([5]; group 4: 0.3% emulsion BID Day 1-Day 30, rabbit) was “significant reduction”.
In the case of CNC(=O)c1cc(Oc2ccc(NC(=O)Nc3ccc(Cl)c(C(F)(F)F)c3)c(F)c2)ccn1 [Regorafenib, regorafenib], the “degradation products in HPLC chromatograms” value ([6]; 400 mg micronized regorafenib monohydrate suspended in 20 ml F6H8) is reported as “No unidentified degradation product was observed” and the “Measured regorafenib concentration, % of theoretical concentration” value ([6]; 400 mg micronized regorafenib monohydrate suspended in 20 ml F6H8, HPLC) is reported as 95.4-99.1%.
